Assay results taken from US20250101042A1, “KRAS G12D MODULATING COMPOUNDS” (Gilead Sciences, Inc., priority 2023, published 2025).

Experiments:
GDP-loaded KRAS G12D = GDP-loaded KRAS G12D (Homo sapiens, UniProt P01116, G12D); assay: KRAS G12D (GDP) Biochemical Assay (TR-FRET probe displacement); type: binding; conditions: 0.5 nM enzyme, 2 hours at room temperature
Protocol: Example A. KRAS G12D (GDP) Biochemical Assay
Compounds were tested for binding to GDP-loaded KRAS G12D in a 384-well assay format using a TR-FRET probe displacement assay in buffer consisting of 50 mM Hepes (pH 7.4), 150 mM NaCl, 5 mM MgCl2 and 0.005% Tween-20. […] Compounds were serially diluted (1:3) in DMSO. The LabCyte ECHO Acoustic dispenser system was used to pre-spot the assay plates (384-well Non-Binding Surface plates, Corning, Catalog #3824) with 50 nL of compound. The compounds were pre-incubated with 5 μL of 2× final enzyme concentration for 30 minutes before adding 5 μL of 2× final concentration of Eu-streptavidin and TR-FRET probe (10 μL final reaction volume). The plates were incubated at room temperature for 2 hours before measuring TR-FRET ratio on the Envision plate reader. IC50 values were defined as the compound concentration that causes a 50% decrease in TR-FRET ratio and were calculated using a sigmoidal dose-response model to generate curve fits.

GP2D (KRAS G12D) cells = assay: 2D Cell Viability Assay (CellTiter-Glo); type: cell-based; conditions: GP2d, 96 h, 4 days, CellTiter-Glo luminescence
Protocol: Example B. 2D Cell Viability Assay
Compounds were tested in a 384-well format for their ability to inhibit the viability of GP2D (KRAS G12D) cells in 2D assays. Compounds were serially diluted (1:3) in DMSO. The LabCyte ECHO Acoustic dispenser system was used to pre-spot assay plates with 200 nL of test molecule per well. 1000 cells/well (40 μL volume per well) in RPMI medium with 10% FBS, and Penicillin-Streptomycin-Glutamine were plated in pre-spotted 384-well plates (Greiner, Catalog #781076) on the BioTEK EL406 liquid dispenser with a 5 μL dispensing cassette (BioTek 7170011). The plates were incubated at 37° C., 5% CO2 for 4 days before addition of CellTiter-Glo (CTG) reagent and measurement of luminescence signal. EC50 values were defined as the compound concentration that causes a 50% decrease in luminescence signal and were calculated using a sigmoidal dose-response model to generate curve fits.

GDP-loaded KRAS G12D, sequence (P01116 1-188 isoform P01116-2 G12D): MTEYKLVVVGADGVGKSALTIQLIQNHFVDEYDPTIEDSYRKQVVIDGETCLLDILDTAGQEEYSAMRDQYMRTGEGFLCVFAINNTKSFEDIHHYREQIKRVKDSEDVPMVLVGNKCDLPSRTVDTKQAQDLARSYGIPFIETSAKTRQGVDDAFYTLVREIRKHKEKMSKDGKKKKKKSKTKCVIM

C#Cc1c(F)ccc2cc(N)nc(-c3c(F)c4c5c(nc(OC[C@@]67CCCN6C[C@H](F)C7)nc5c3F)N3C[C@H]5CC[C@H](N5)[C@H]3CCC4)c12 [Example 61, (S)-1-((1S,4R,15aR)-10,12-difluoro-8-(((2R,7aS)-2-fluorotetrahydro-1H-pyrrolizin-7a(5H)-yl)methoxy)-2,3,4,5,13,14,15,15a-octahydro-1H-1,4-epiminoazepino[1′,2′:1,8]azocino[2,3,4-de]quinazolin-11-yl)-8-ethynyl-7-fluoroisoquinolin-3-amine]
IC50 (GDP-loaded KRAS G12D): 0.02 nM | EC50 (GP2D (KRAS G12D) cells): 0.88 nM

C[C@H]1Cc2c(F)c(-c3ccc(F)c4sc(N)c(C#N)c34)c(F)c3nc(OC[C@@]45CCCN4C[C@H](F)C5)nc(c23)N2C[C@H]3CC[C@H](N3)[C@H]12 (atropisomer, axis not shown; (aS)) [Example 34, (S)-2-amino-4-((1S,4R,14S,14aS)-10,12-difluoro-8-(((2R,7aS)-2-fluorotetrahydro-1H-pyrrolizin-7a(5H)-yl)methoxy)-14-methyl-1,2,3,4,5,13,14,14a-octahydro-1,4-epiminoazepino[1′,2′:1,7]azepino[2,3,4-de]quinazolin-11-yl)-7-fluorobenzo[b]thiophene-3-carbonitrile]
IC50 (GDP-loaded KRAS G12D): 0.08 nM | EC50 (GP2D (KRAS G12D) cells): 0.5 nM

Cc1cc(N)nc(-c2nc3c4c(nc(OC[C@@]56CCCN5C[C@H](F)C6)nc4c2F)N2C[C@H]4CC[C@H](N4)[C@H]2CCC3)c1C(F)(F)F [Example 7, 6-((6aR,7S,10R)-1-fluoro-13-(((2R,7aS)-2-fluorotetrahydro-1H-pyrrolizin-7a(5H)-yl)methoxy)-5,6,6a,7,8,9,10,11-octahydro-4H-3,11a,12,14,15-pentaaza-7,10-methanocyclohepta[4,5]cycloocta[1,2,3-de]naphthalen-2-yl)-4-methyl-5-(trifluoromethyl)pyridin-2-amine]
IC50 (GDP-loaded KRAS G12D): 0.7 nM | EC50 (GP2D (KRAS G12D) cells): 11 nM

Cc1cc(N)nc(-c2c(Br)c3c4c(nc(OC[C@@]56CCCN5C[C@H](F)C6)nc4c2F)N2C[C@H]4CC[C@H](N4)[C@H]2CC3)c1C(F)(F)F [Example 14, 6-((1S,4R,14aR)-12-bromo-10-fluoro-8-(((2R,7aS)-2-fluorotetrahydro-1H-pyrrolizin-7a(5H)-yl)methoxy)-1,2,3,4,5,13,14,14a-octahydro-1,4-epiminoazepino[1′,2′:1,7]azepino[2,3,4-de]quinazolin-11-yl)-4-methyl-5-(trifluoromethyl)pyridin-2-amine]
IC50 (GDP-loaded KRAS G12D): 0.24 nM | EC50 (GP2D (KRAS G12D) cells): 2.5 nM

CCc1c(-c2nc(N)cc(C)c2C(F)(F)F)c(F)c2nc(OC[C@@]34CCCN3C[C@H](F)C4)nc3c2c1CC[C@@H]1[C@@H]2CC[C@H](CN31)N2 [Example 16, 6-((1S,4R,14aR)-12-ethyl-10-fluoro-8-(((2R,7aS)-2-fluorotetrahydro-1H-pyrrolizin-7a(5H)-yl)methoxy)-1,2,3,4,5,13,14,14a-octahydro-1,4-epiminoazepino[1′,2′:1,7]azepino[2,3,4-de]quinazolin-11-yl)-4-methyl-5-(trifluoromethyl)pyridin-2-amine]
IC50 (GDP-loaded KRAS G12D): 0.82 nM | EC50 (GP2D (KRAS G12D) cells): 20 nM
